# According to patent publication US11311531B2, “Method for producing benzazoloquinolium (BQs) salts and using the biological activity of the composition” (Sistema Universitario Ana G. Mendez, Inc., priority 2014, dated 2022):
# Columns and labels:
# [1] = system: human colorectal adenocarcinoma COLO-205; assay: Apoptosis analysis by Annexin V expression; format: cell-based; settings: 24 hours
# Experimental: Cell culture conditions: The cell cultures utilized in this study were human colorectal adenocarcinoma COLO-205 (ATCC CCL-222). Cultures were maintained in RPMI 1640 media (ATCC, Manassas Va.) supplemented with 10% fetal bovine serum (ATCC) maintained at 37° C. with 95% air and 5% CO2. Apoptosis analysis by Annexin V expression: The annexin V assay allows detection of the migration phosphatidylserine (PS) to the exterior surface of cells, a characteristic event in apoptotic cells. Approximately 2.5×10^6 cells were treated for 24 hours with 10 μM and 20 μM doses of the BQ test compounds. Controls used in all assays were camptothecin 10 and vehicle (DMSO). After a 24-hour exposure, cells were stained with the annexin V conjugate, and propidium iodide (Biotium, Hayward, Calif.). Samples were analyzed by using the Nucleo Counter NC3000 system annexin V assay (Chemometec, Allerød, Denmark). This system allows for measurement and quantification of stained cells. A one-way ANOVA with post hoc Tukey test was also performed for all assays using GraphPad Prism version 6. DNA Fragmentation: DNA Fragmentation can be used as a marker for detection of cells undergoing apoptosis. This enzyme mediated event can be quantified by measuring DNA fragments. The Nucleo Counter NC3000 assay is based on removal of small DNA fragments and retention of 4′,6-diamidino-2-phenylindole (DAPI) stained higher weight fragments. After treatment with BQ's at the test doses, cells were fixed with 70% ethanol for at least 24 hours, stained with 1 μg/ml DAPI, and analyzed using the NC3000 instrument measuring DAPI intensity. Mitochondrial Membrane Permeability: Mitochondria permeability is central in the cell death process. The Nucleocounter NC3000 preset mitochondrial potential assay was used. Approximately 1×10^6 cells were stained with 5,5′,6,6′-Tetrachloro-1,1′,3,3′-tetraethyl-imidacarbocyanine iodide (JC-1) and 1 μg/ml DAPI and analyzed in the NC3000. depolarized cells will fluoresce green while cells with stable mitochondrial membrane potential will fluoresce orange. The change in ratio of green to orange fluorescence will determine the permeability state of the samples.
# [2] = system: human colorectal adenocarcinoma COLO-205; assay: Mitochondrial membrane permeability, JC-1 NC3000; format: cell-based; settings: colo 205, versus negative control and camptothecin
# Experimental: (§1) Cell culture conditions: The cell cultures utilized in this study were human colorectal adenocarcinoma COLO-205 (ATCC CCL-222). Cultures were maintained in RPMI 1640 media (ATCC, Manassas Va.) supplemented with 10% fetal bovine serum (ATCC) maintained at 37° C. with 95% air and 5% CO2. Apoptosis analysis by Annexin V expression: The annexin V assay allows detection of the migration phosphatidylserine (PS) to the exterior surface of cells, a characteristic event in apoptotic cells. Approximately 2.5×10^6 cells were treated for 24 hours with 10 μM and 20 μM doses of the BQ test compounds. Controls used in all assays were camptothecin 10 and vehicle (DMSO). […] Samples were analyzed by using the Nucleo Counter NC3000 system annexin V assay (Chemometec, Allerød, Denmark). This system allows for measurement and quantification of stained cells. […] This enzyme mediated event can be quantified by measuring DNA fragments. […] After treatment with BQ's at the test doses, cells were fixed with 70% ethanol for at least 24 hours, stained with 1 μg/ml DAPI, and analyzed using the NC3000 instrument measuring DAPI intensity. […] Approximately 1×10^6 cells were stained with 5,5′,6,6′-Tetrachloro-1,1′,3,3′-tetraethyl-imidacarbocyanine iodide (JC-1) and 1 μg/ml DAPI and analyzed in the NC3000. depolarized cells will fluoresce green while cells with stable mitochondrial membrane potential will fluoresce orange. […]
# [3] = system: human colorectal adenocarcinoma COLO-205; assay: DNA fragmentation, NC3000 DAPI; format: cell-based; settings: colo 205, versus negative control and camptothecin
# Experimental: as §1
# TK-6 cells = assay: DNA fragmentation, NC3000 DAPI assay; format: cell-based, human; settings: TK6, 48 hours
# Experimental: (§2) Methods—Cultures were exposed for 48 hours to ABQ 48 at doses from 10 μM to 180 μM. Cells were harvested counted and assessed for cell viability implementing the Trypan Blue exclusion method using the Countess™ automated cell counter (Invitrogen Corp. Carlsbad, Calif.). The percentage of viable cells was calculated and graphed using Excel (Microsoft Corp. Redmond, Wash.). The mitochondrial membrane permeability assays was determined applying the Nucleocounter 3000, JC-1 assay. DNA fragmentation and cell cycle alterations were analyzed also through the Nucleocounter 3000 instrument.
# (§3) Bioactivity 3. DNA fragmentation—Fragmentation of DNA as a marker for apoptosis is a commonly used assay. Analysis was performed applying the Nucleo counter NC3000 DNA fragmentation assay. Determination of the degree of DNA fragmentation is based on the retention of DAPI, a nucleic acid staining reagent. As described previously TK-6, and Toledo cells were kept in culture at the specified conditions. Cells where then treated with the tested compounds as previously described for 48 hours, after which nutritional media removed, cells harvested, fixed with 70% ethanol, incubated and stained with 1 μg/ml DAPI according to manufacturer's specifications for image analysis measuring DAPI intensity.
# (§4) DNA fragmentation—Analysis was performed applying the Nucleo counter NC3000 DNA fragmentation assay. Determination of the degree of DNA fragmentation is based on the retention of DAPI, a nucleic acid staining reagent. Prior to treatment with the tested compounds A431 and TK-6 cells were kept in culture at the specified conditions. Cells where then treated with the tested compounds at the respective IC50 concentrations ([…] DNA fragmentation protocol was as recommended by Nucleo counter NC3000 manufacturer.
# [4] = system: NCI 60 human tumor cell line panel; assay: NCI 60 human tumor cell line screen, one dose, whole panel; format: cell-based; settings: for activity in the NCI 60 screen (growth inhibition, in words): one dose; for growth inhibition: 10 μM
# Experimental: (§5) The National Cancer Institute (NCI) 60 human tumor cell line screen uses genetically characterized cells to determine biological activity against various cell lines. The panel is comprised of various cell types representing some of the most important cancer types. Two of the benzazolo[3,2-a]quinolinium salts i.e. NBQ 48 (NSC: D-763303) and ABQ 48 (NSC: D-763307) were tested at a dose of 10 μM on the entire cell line panel. The complete details of the NCI-60 cell line screening are describe in document Feasibility of drug screening with panels of human tumor cell lines using a microculture tetrazolium assay. Cancer research, 1988, 48(3), 589-601 (here included by reference).
# (§6) Briefly, the cancer cells are grown in RPM1 1640 medium for 24 hours. Experimental compounds dissolved in DMSO are incubated with cells at 10 μM. After incubation the cells are stained with sulforhodamine B and the absorbance is read on a plate reader. The data reported as a mean graph are shown in the drawings FIG. 21 through FIGS. 24A-24I. For five dose study the test compound is incubated with cells at five different concentrations with 10-fold dilutions, from 10^−4 M, 10^−5, 10^−6, 10^−7, and 10^−8 M. Rest of the procedure is similar to the one dose experiment. After measurement, the (GI50) is calculated from time zero, control growth, and the five concentration absorbance. Inhibitory concentrations (LC50) represent the average of two experiments.
# (§7) All the one-dose data of these compounds is reported as a mean of the growth percent of BQ exposed cells. One dose assay results are relative to control and number of cells at time 0. Growth inhibition values are placed from 0 to 100 whereas lethality is reflected in values less than 0. A sample obtained value of 100 means that no growth was inhibited. If the value is for example 30 then growth inhibition is 70%. If a sample has a value of −30 then this means 30% lethality, conversely if the value would be −100 the all cells in the sample are dead.
# Toledo cells [5] = assay: DNA fragmentation, NC3000 DAPI assay; format: cell-based, human; settings: 48 hours
# Experimental: as §2, §3
# Toledo cells [6] = assay: Cell cycle disruption, DAPI image analysis; format: cell-based, human; settings: 48 hours
# Experimental: as §2
# (§8) Bioactivity 4. Cell Cycle disruption—Cell cycle effects are of great importance to the characterization of any novel therapeutic agent. This most fundamental cellular process is integral in determining the effects of any drug upon the target cells. After treatment with the tested BQs at previously described conditions, cells were harvested, and stained with 10 μg/ml DAPI (a DNA marker) according to manufacturer's specifications and analyzed with the instrument using image analysis to measure the DAPI intensity as an indicator of the DNA density.
# U251 = assay: NCI 60 human tumor cell line screen, one dose; format: cell-based; settings: 10 μM
# Experimental: as §5, §6, §7
# SK-MEL-5 = assay: NCI 60 human tumor cell line screen, one dose; format: cell-based; settings: 10 μM
# Experimental: as §5, §6, §7
# KM12 = assay: NCI 60 human tumor cell line screen, one dose; format: cell-based; settings: 10 μM
# Experimental: as §5, §6, §7
# TK6 [7] = assay: Cell cycle disruption, DAPI image analysis; format: cell-based, human; settings: Tk6, ABQ 48 exposure
# Experimental: as §2
# as §8, with “Cell” for “Bioactivity 4. Cell”, “agent.” for “agent. This most fundamental cellular process is integral in determining the effects of any drug upon the target cells.”, “BQS 95 and BQS 38” for “BQs”
# A431 [8] = assay: Cell cycle disruption, DAPI image analysis; format: cell-based, human; settings: A431, ABQ 48 exposure
# Experimental: as §2
# as §8, with “Cell” for “Bioactivity 4. Cell”, “agent.” for “agent. This most fundamental cellular process is integral in determining the effects of any drug upon the target cells.”, “BQS 95 and BQS 38” for “BQs”
# A431 cells = assay: DNA fragmentation, NC3000 DAPI assay; format: cell-based, human; settings: A431, ABQ 48 exposure
# Experimental: as §2, §4
# Toledo = assay: Mitochondrial membrane permeability, JC-1 assay; format: cell-based, human
# Experimental: as §2
# TK6 [9] = assay: Mitochondrial membrane permeability, JC-1 assay; format: cell-based, human
# Experimental: as §2
# A431 [10] = assay: Mitochondrial membrane permeability, JC-1 assay; format: cell-based, human
# Experimental: as §2
# [11] = system: A431 epitheloid carcinoma cells; assay: Cell viability, Trypan Blue exclusion; format: cell-based, human
# Experimental: (§9) Cell cultures—The three cell lines A431 epitheloid carcinoma cells (ATCC CRL-1555), the human TK-6 lymphoblasts cells (ATCC CRL-8015) and Toledo lymphoma (CRL-2631 respectively) were obtained from American Type Culture Collection (ATCC, Manassas, Va.) and cultured on RPMI 1640 (ATCC) cell culture media with 10% fetal bovine serum (ATCC). Cell cultures were maintained in a cell culture incubator at 37° C. and 5% CO2.
# as §2
# TK-6 lymphoblasts cells = assay: Cell viability, Trypan Blue exclusion; format: cell-based, human
# Experimental: as §9, §2
# Toledo lymphoma cells = assay: Cell viability, Trypan Blue exclusion; format: cell-based, human
# Experimental: as §9, §2
# [12] = Cytotoxicity activity of CBQs; format: cell-based; settings: human, A-431 cells; A-431 cell line
molecule,measurement,setting,value
"7-(2,3,4-Trimethoxybenzyl)-3-aminostyrylbenzimidazo[3,2-a]quinolinium chloride [ABQ 234 TOM]",apoptotic cells,[1]; 10 μM,91%
same,apoptotic cells,[1]; 20 μM,91%
same,mitochondrial membrane permeabilization,[2],higher mitochondrial permeabilization in comparison with the negative control (water as vehicle) and similar to the positive control camptothecin
same,DNA fragmentation induction,[3],did not present evidence of DNA fragmentation
"7-(2,3,4-trimethoxybenzyl)-3-nitrobenzimidazo[3,2-a]quinolinium chloride [NBQ 234 TOM]",apoptotic cells,[1]; 10 μM,83.7%
same,apoptotic cells,[1]; 20 μM,87.5%
same,mitochondrial membrane permeabilization,[2],higher mitochondrial permeabilization in comparison with the negative control (water as vehicle) but lower than cells treated with the positive control camptothecin
same,DNA fragmentation induction,[3],higher DNA fragmentation in comparison with the negative control (water as vehicle) and higher than the positive control camptothecin
"7-benzyl-3-nitrobenzimidazolo[3,2-a]quinolinium chloride [NBQ-48]",DNA fragmentation,TK-6 cells,higher than the negative control
same,"activity in the NCI 60 screen (growth inhibition, in words)",[4],less effective
same,DNA fragmentation,Toledo cells [5],higher than the negative control
"Nc1ccc2c(ccc3n2c2ccccc2[n+]3Cc2ccccc2)c1.[Cl-] [ABQ-48, 7-Benzyl-3-aminobenzimidazo[3,2-a]quinolinium chloride]",DNA fragmentation,TK-6 cells; listed as ABQ 48,observed
same,DNA fragmentation,TK-6 cells; listed as ABQ48,higher than the negative control
same,cell cycle alteration,Toledo cells [6]; listed as ABQ 48,observed
same,cell cycle alteration,Toledo cells [6]; listed as ABQ48,arrested at the S/G2 stage
same,growth inhibition,U251,> 90%
same,growth inhibition,SK-MEL-5,> 90%
same,growth inhibition,KM12,> 90%
same,cell cycle alteration,TK6 [7],observed
same,cell cycle alteration,A431 [8],observed
same,DNA fragmentation,A431 cells,observed
same,mitochondrial membrane permeability,Toledo,observed
same,mitochondrial membrane permeability,TK6 [9],observed
same,mitochondrial membrane permeability,A431 [10],observed
same,growth inhibition,[4]; in no less than 8 cell lines,greater than 60%
same,growth inhibition,[4]; in several cell lines,> 70%
same,"activity in the NCI 60 screen (growth inhibition, in words)",[4],highly effective
same,DNA fragmentation,Toledo cells [5]; listed as ABQ 48,observed
same,DNA fragmentation,Toledo cells [5]; listed as ABQ48,higher than the negative control
same,IC90,[11]; A431,90 µM
same,IC50,"[11]; A431, 48 hours exposure",23 µM
same,IC90,TK-6 lymphoblasts cells; Tk6,135 µM
same,IC50,"TK-6 lymphoblasts cells; Tk6, 48 hours exposure",8.6 µM
same,IC90,Toledo lymphoma cells,100 µM
same,IC50,Toledo lymphoma cells; 48 hours exposure,50 µM
"Cc1ccc2sc3ccc4c(Cl)cccc4[n+]3c2c1 [CBQ-108, 4-Chloro-10-methylbenzothiazolo[3,2-a]quinolinium chloride]",IC50,[12],3.7 µM
